According to patent publication US20190070163A1, “ANTITUMOR AGENT” (TOCHIGI INSTITUTE OF CLINICAL PATHOLOGY, priority 2013, published 2019):

System: spontaneously developed mammary gland tumors (adenocarcinoma and adenoma)
Experiment: Therapeutic effect on tumor-bearing rats; light and electron microscopy of removed tumor tissues
Assay type: in vivo, Sprague-Dawley rats
Conditions: for apoptosis of smooth muscle cells in the tumor site: electron micrographs FIGS. 12 to 15; for degeneration of axons of peripheral nerve cells in the tumor site / degeneration of myelin sheaths of peripheral nerve cells in the tumor site: electron micrographs FIGS. 16 to 19; for stage of apoptosis of endothelial cells (irregular condensation and fragmentation of nuclei): staging per Ihara et al. 1998; for apoptosis in the tumor cells / inhibitory effect on the development and the growth of the tumor cells: tumor-bearing rats, oral daily (montelukast sodium 0.16, zafirlukast 1.33, pranlukast hydrate 7.5, zileuton 34.3 mg/kg), vs untreated
Text: Sprague-Dawley rats which had spontaneously developed a tumor during breeding (hereinafter referred to as tumor-bearing rats) were purchased from Charles River Japan, Inc., and used for experiments. Tumors observed were all mammary gland tumors (adenocarcinoma and adenoma). All of these were spontaneous tumors, and the rats were cancer-bearing animals having various conditions of tumorigenesis including carcinogenic factors in mammals including human.
Under ether anesthetization, tumor tissues were removed from tumor-bearing rats. The removed tumors were fixed, and thereafter samples for light microscopy (hematoxylin-eosin staining) and samples for electron microscopy (uranium-lead double staining) were prepared and observed.
To tumor-bearing rats, a leukotriene inhibitor containing montelukast sodium as an active ingredient (leukotriene receptor antagonist; trade name “Singulair Tablets”; manufactured by MSD K. K.) was orally administered for up to 7 days at a daily dose of 0.16 mg/kg body weight in terms of montelukast sodium. On Day 3 and Day 7, tumor tissues were removed under ether anesthetization. In the same manner as in Comparative Example 1, the removed tumors were fixed, and thereafter samples for light microscopy (hematoxylin-eosin staining) and samples for electron microscopy (uranium-lead double staining) were prepared and observed.
To tumor-bearing rats, a leukotriene inhibitor containing zafirlukast as an active ingredient (leukotriene receptor antagonist; trade name “Accolate”; manufactured by AstraZeneca K. K.) was orally administered for up to 7 days at a daily dose of 1.33 mg/kg body weight in terms of zafirlukast. On Day 3 and Day 7, tumor tissues were removed under ether anesthetization. In the same manner as in Comparative Example 1, the removed tumors were fixed, and thereafter samples for light microscopy (hematoxylin-eosin staining) and samples for electron microscopy (uranium-lead double staining) were prepared and observed.
To tumor-bearing rats, a leukotriene inhibitor containing pranlukast hydrate as an active ingredient (leukotriene receptor antagonist; trade name “Onon”; manufactured by Ono Pharmaceutical Co., Ltd.) was orally administered for up to 7 days at a daily dose of 7.5 mg/kg body weight in terms of pranlukast hydrate. On Day 3 and Day 7, tumor tissues were removed under ether anesthetization. In the same manner as in Comparative Example 1, the removed tumors were fixed, and thereafter samples for light microscopy (hematoxylin-eosin staining) and samples for electron microscopy (uranium-lead double staining) were prepared and observed.
To tumor-bearing rats, a leukotriene inhibitor containing zileuton as an active ingredient (leukotriene biosynthesis inhibitor; trade name “ZYFLO”; manufactured by Abbott Laboratories) was orally administered for up to 7 days at a daily dose of 34.3 mg/kg body weight in terms of zileuton. On Day 3 and Day 7, tumor tissues were removed under ether anesthetization. In the same manner as in Comparative Example 1, the removed tumors were fixed, and thereafter samples for light microscopy (hematoxylin-eosin staining) and samples for electron microscopy (uranium-lead double staining) were prepared and observed.

[1] = oral, dosing period 3 days, electron micrographs

Row | Structure (SMILES) | apoptosis of fibroblasts in tumor tissue [1] | apoptosis of smooth muscle cells in the tumor site (oral, dosing period 3 days) | degeneration of axons of peripheral nerve cells in the tumor site (oral, dosing period 3 days) | degeneration of myelin sheaths of peripheral nerve cells in the tumor site (oral, dosing period 3 days) | stage of apoptosis of endothelial cells (irregular condensation and fragmentation of nuclei) [1] | apoptosis in the tumor cells | inhibitory effect on the development and the growth of the tumor cells | effect to inhibit stromal hyperplasia (oral, dosing period 3 days)
1 | COc1cc(C(=O)NS(=O)(=O)c2ccccc2C)ccc1Cc1cn(C)c2ccc(NC(=O)OC3CCCC3)cc12 [zafirlukast] | apoptosis of fibroblast | apoptosis of a smooth muscle cell | vacuolation and degeneration of an axon | degeneration of a myelin sheath | Stage II to III | apoptosis was already induced on as early as Day 3 | remarkable inhibitory effect | –
2 | CC(c1cc2ccccc2s1)N(O)C(N)=O (centres unmarked) [zileuton] | – | apoptosis of a smooth muscle cell | vacuolation and degeneration of an axon | degeneration of a myelin sheath | Stage II to III | apoptosis was already induced on as early as Day 3 | remarkable inhibitory effect | an effect to inhibit stromal hyperplasia was also seen
